Measured values taken from a melting point compilation (Tetko et al.; mined from patent text by program, amines drawn as free bases though some values may be those of a salt).

| melting point [°C] | Structure (SMILES) |
| --- | --- |
| 111 to 112 | CC1(C)C(c2ccc(O)cc2)C1(Cl)Cl (stereo not drawn) |
| 198 to 200 | COc1ccc(NC(=S)Nc2ccc(NNC=O)cc2)cc1 |
| 230 | CN(C)CCc1c(C(=O)O)[nH]c2ccc(C[C@H]3COC(=O)N3)cc12 |
| 182 | COc1ccc(CCNCCCOc2ccccc2NC(=O)c2cccc3[nH]ccc23)cc1OC |
| 171 to 174 | CCN1CCCC1CNC(=O)c1cc(-n2cnnn2)ccc1OC (stereo not drawn) |
| 162 to 164 | CC(C)(C)c1ccc(-c2ccc(COc3cccc4cc(NS(=O)(=O)C(F)(F)F)ccc34)c(F)c2)cc1 |
| 63 to 65 | O=CN(c1cccc(C(F)(F)F)c1)c1cccc(C(F)(F)F)c1 |
| 108 | Cc1c(C=CC#N)c2c(c(C)c1OCc1ccccc1)CCC(C)(C)O2 |
| > 250 | Cc1cc(-c2ccc(C(F)(F)F)cc2)nc(-c2cccc(-c3cccc(S(=O)(=O)NC(C)(C)C)c3)n2)n1 |
| 211 to 212 | COc1ccc(N2C(=O)[C@H](O)[C@@H]2c2ccccc2)cc1 |
| 257 | O=C(Nc1cccc(S(=O)(=O)NCC(F)(F)F)c1)c1cnn2c(C(F)F)cc(-c3ccc(C(F)(F)F)cc3)nc12 |
| 170 to 173 | CC1=C(c2ccc(OCC(=O)O)c(Cl)c2Cl)CC(C)CC1=O (stereo not drawn) |
| 194 to 197 | Cc1ccc2[nH]c(C(=O)c3ccc(Cl)cc3)c(CC(=O)O)c2c1 |
| 143 | COc1cc(-c2cccc(Cl)c2)c2cc(C(O)(c3ccc(Cl)cc3)c3cncn3C)cc(NC(C)=O)c2n1 (stereo not drawn) |
| 172 to 174 | O=C(c1ccccc1)c1cc(Cl)cc2c1S(=O)CC2C(=O)O (stereo not drawn) |
| 123 to 125 | O=C(O)C(S)c1ccc(Cl)cc1 (stereo not drawn) |
| 163 to 165 | N#Cc1cc(NC(=O)C2CCc3ccccc3C2)ccc1N1CCC(O)CC1 (stereo not drawn) |
| 157 | CN1[C@@H](c2cccc(Br)c2)c2ccccc2S1(=O)=O |
| 122 to 124 | COc1cc2c(c(Cl)c1Cl)SCC2O (stereo not drawn) |
| 163 to 164 | CC(C)c1c(C=O)c(-c2ccccc2)c2c3ccccc3cnn12 |
| 167 | COc1cccc(C(=O)Nc2nc(C(=O)c3ccc([N+](=O)[O-])c(OC)c3)n3ccccc23)c1 |
| 130 to 132 | CSC(=N)NC(c1ccccc1)c1ccc(C)cc1 (stereo not drawn) |
| 195 to 197 | Nc1ncnc2c1ncn2OCC(CO)SCP(=O)(O)O (stereo not drawn) |

| melting point [°C] | Structure (SMILES) |
| --- | --- |
| 170 to 171 | Cc1nc[nH]c1CSCCN=C(NC#N)NCCc1c[nH]cn1 |
| 193 to 200 | O=C(O)c1ccc(F)cc1Sc1ccccc1 |
| 130 | CCCN(CCC)C(=O)CN(C(=O)CN1C(=O)c2ccccc2C1=O)c1ccccc1 |
| 66 | CC(C)(C)OC(=O)NC1CCN(CCO)CC1 |
| 200 to 201 | COc1cc2c(cc1OC)CCCCC(C(=O)O)=C2 |
| 196 to 197 | O=C(O)C1CCc2c(n(C(=O)c3ccccc3)c3ccc(Cl)cc23)C1 (stereo not drawn) |
| 72 to 74 | Cc1ccc2c(c1)OC(CCO)C(=O)N2Cc1cccc(Cl)c1 (stereo not drawn) |
| 211 to 212 | Cc1c[nH]c(-c2c(Cl)cc(C(F)(F)F)cc2Cl)n1 |
| 228 to 229 | CN(c1cccs1)c1n[nH]c2ncnc(Nc3cccc(Cl)c3)c12 |
| 166 to 168 | CCc1nnc2c(NC3CCCC3)nc3ccccc3n12 |
| 350 to 352 | O=C1CC(c2cccc3c2OCO3)=Nc2ccc(N3CCOCC3)cc21 |
| 278 to 284 | N#CC(C(=O)Nc1cccc(F)c1)C(=O)c1nn(-c2ccccc2)c2c1Cc1ccccc1-2 (stereo not drawn) |
| 313 | O=C(O)c1ccc(C(=O)O)c(Cl)c1 |
| 143 | CC(C)(C)C(O)C(NC(=O)c1ccccc1)n1ccnc1 (stereo not drawn) |
| 179 to 182 | N#Cc1ccc(C=NO)c(F)c1 |
| 95 to 98 | CC(C)c1nc(COCc2ccccc2)n(Cc2cnc3ccccc3c2)c1Sc1cc(Cl)cc(Cl)c1 |
| 137 to 138 | CCCCn1cc(S(C)=O)c(=O)c2sccc21 (stereo not drawn) |
| 207 to 208 | COc1ccnc(CCc2nc3cc(I)cnc3[nH]2)c1 |
| 192 | O=c1cc(-c2ccccc2)oc2c(CN3CCN(CCO)CC3)c(O)c(O)c(O)c12 |
| 90 | BrCC1(c2ccc3c(c2)Cc2ccccc2-3)OCCO1 |
| 87 | CC(C)(O)CCCCC(C)(C)O |
| 104 to 105 | CCCC1=C(c2ccccc2)[C@@H](c2ccccc2)OC1=O |
| 108 to 109 | O=C(O)C(Cl)Cc1ccccc1[N+](=O)[O-] (stereo not drawn) |

| melting point [°C] | Structure (SMILES) |
| --- | --- |
| 230 | O=C(Nc1cccc(S(=O)(=O)NCc2ccccc2)c1)c1cnn2c(C(F)F)cc(-c3ccc(C(F)(F)F)cc3)nc12 |
| 261 to 262 | Cc1c(C(=O)Nc2cccc(C#N)c2N2CCC(O)CC2)cnn1C |
| 117 | CCN(CC)C(=O)C(C)Oc1nc(-c2ccccc2)cc2ccccc12 (stereo not drawn) |
| 201 to 202 | Cc1ccc(-n2c(-c3ccccc3)cc(Br)c2-c2ccccc2)cc1 |
| 203 to 205 | CCc1nc2cccc(C(=O)OC)c2n1Cc1ccc(-c2ccccc2-c2nc(=O)s[nH]2)cc1 |
| 177 to 178 | O=C(Nc1ccc(Oc2ccccc2)cc1)N1CCN(c2ncnc3cc(F)c(F)cc23)CC1 |
| 90 to 92 | CCOC(=O)Nn1cccc1C(=O)c1ccccc1Cl |
| 81.9 to 82.3 | Cc1c(C(F)(F)F)nc2c(C(F)(F)F)cccc2c1Br |
| 85 to 89 | CNC(=NS(C)(=O)=O)NCCSCc1csc(NC(N)=NCC(F)F)n1 |
| 201 to 205 | Cc1cccc(-c2[nH]c(C(C)C)nc2-c2ccc(F)c(-c3ncc[nH]3)c2)n1 |
| 87 to 89 | O=[N+]([O-])c1ccc2c(c1Br)OCO2 |
| 187 | CC(C)(O)c1cnn2c(-c3ccc(F)c(-c4ccccc4C#N)c3)cnc2n1 |
| 115 to 118 | COc1nc(Cl)cc2nccn12 |
| 55 to 56 | COCc1c(OCc2ccccc2)ccc2c1CCCC2=O |
| 183 to 185 | CCc1cccc2c1C(=O)NS2(=O)=O |
| 120 to 124 | N#Cc1ccc(NC(=O)CN2CCC(Cc3ccccc3)CC2)cc1 |
| 260 | CCCC(=O)Nc1n[nH]c2c([N+](=O)[O-])c(Br)c([N+](=O)[O-])cc12 |
| 89 to 91 | CN1CC(CCN2CCN(c3ccc(Cl)c(Cl)c3)CC2)OC1=O (stereo not drawn) |
| 203 to 204 | Oc1ccc2nc(Br)sc2c1 |
| 119 | CCCCc1cn2ccccc2c1S(=O)(=O)c1ccc(OCCCBr)cc1 |
| 68 to 72 | CC1(C)C2CC[C@]1(C)C(=O)C(C(=O)Nc1cc(C(F)(F)F)cc(C(F)(F)F)c1)C2=O (stereo partly drawn) |
| 239 | CN(Cc1ccc(-c2ccc(OCc3nnn[nH]3)c(Br)c2)cc1)C(=O)c1cn(C)c2ccccc12 |
| 168 to 170 | NCCNC(=O)COc1ccc(C2=NNC(=O)CC2)cc1Cl |

| Structure (SMILES) | melting point [°C] |
| --- | --- |
| O=c1[nH]nc2cc(C(c3c(F)ccc(F)c3F)S(=O)(=O)CCC(F)(F)F)c(Cl)cn12 (stereo not drawn) | 209 to 211 |
| CCC1C(C)=NN=C(c2ccc(OC)c(OC)c2)c2cc(OC)c(O)cc21 (stereo not drawn) | 210 to 212 |
| O=S(=O)(NCCSC1c2ccccc2COc2ccc(/C=C/c3ccc4cc(F)c(F)cc4n3)cc21)C(F)(F)F (stereo not drawn) | 84 to 87 |
| CC(C)(C)NCC(=O)c1cccc2cc(O)c(O)cc12 | 140 to 144 |
